What was measured:
Format in all cases: cell-based
Ba/F3 KIF5B-RET cells [1] = biological target: T1, Ba/F3 KIF5B-RET cells (Homo sapiens, UniProt P07949); assay: Cytotoxicity assay (CellTiter-Glo), Ba/F3 KIF5B-RET; details: CellTiter-Glo, 72 hrs; read-out: Ba/F3 KIF5B-RET IC50
T1 construct: Ba/F3 KIF5B-RET IC50 (nM); other: CellTiter-Glo, 72 hrs; fused on or other part: P33176 (Kinesin-1 heavy chain)
Experimental: (§1) Inhibitory effects of example compounds on the activity of Ba/F3 parental generation, Ba/F3 KIF5B-RET, Ba/F3 KIF5B-RET^V804M, Ba/F3 KIF5B-RET^V804L, Ba/F3 KIF5B-RET^G810R, Ba/F3 FLT3-ITD, Ba/F3 FLT3-ITD^D835Y, Ba/F3 FLT3-ITD^F691L cells were determined.
(§2) Materials and reagents: fetal bovine serum FBS (GIBCO, Cat #10099141), CellTiter-Glo® Luminescent Cell Viability Assay kit (Promega, Cat #G7572), 96-well black-wall clear flat-bottom plate (Corning®, Cat #3603).
(§3) 1. Cells in the logarithmic growth phase were harvested and counted with a […]. Cell viability was detected by a trypan blue exclusion method, ensuring that cell viability was 90% or more; 2. Cell concentration was adjusted to about 3000 cells/well; 90 μl of cell suspension was added to each well of the 96-well plate; 3. The cells in the 96-well plate were incubated overnight under the condition of 37° C., 5% CO2, and 95% humidity.
(§4) 1. A series of compound solutions were formulated by 3.16-fold serial dilution starting from a concentration of 10 μM, resulting in 9 concentrations. 10 μL of the compound solutions were added in each well of the 96-well plate seeded with cells in triplicate for each compound concentration; 2. The cells in the 96-well plate added with compounds were further incubated under the condition of 37° C., 5% CO2, and 95% humidity for 72 hrs, and then CTG analysis was carried out.
(§5) 1. CTG reagent was thawed, and the cell plate was equilibrated at room temperature for 30 minutes; 2. An equal volume […] of CTG solution was added to each well; 3. The cell plate was shaken on an orbital shaker for 5 minutes to lyse the cells; 4. The cell plate was placed at RT for 20 minutes to stabilize the luminescence signal; 5. Luminescence value was read.
(§6) Data were Analyzed by GraphPad Prism 5.0 Software, and Fitted by Nonlinear S-Curve Regression to obtain a dose-response curve, from which IC50 values were calculated.
(§7) Cell survival rate (%)=(luminescence value of drug to be tested−luminescence value of culture medium control)/(luminescence value of cell control−luminescence value of culture medium control)×100%.

Ba/F3 KIF5B-RET cells [2] = assay: as above; details: ratio of Ba/F3 parental IC50 to Ba/F3 KIF5B-RET IC50
Experimental: as §1, §2, §3, §4, §5, §6, §7

[3] = biological target: T2, Ba/F3 KIF5B-RET^V804M cells (Homo sapiens, UniProt P07949, V804M, cells depend on it); assay: Cytotoxicity assay (CellTiter-Glo), Ba/F3 KIF5B-RET V804M; details: CellTiter-Glo, 72 hrs; read-out: Ba/F3 KIF5B-RET^V804M IC50
T2 construct: Ba/F3 KIF5B-RET^V804M IC50 (nM); other: CellTiter-Glo, 72 hrs; fused on or other part: P33176 (Kinesin-1 heavy chain)
Experimental: as §1, §2, §3, §4, §5, §6, §7

[4] = system: Ba/F3 KIF5B-RET^V804M cells; assay: as above; details: ratio of Ba/F3 parental IC50 to Ba/F3 KIF5B-RET^V804M IC50
Experimental: as §1, §2, §3, §4, §5, §6, §7

[5] = biological target: T3, Ba/F3 FLT3-ITD^F691L cells (Homo sapiens, UniProt P36888, F691L, cells depend on it, form not given); assay: Cytotoxicity assay (CellTiter-Glo), Ba/F3 FLT3-ITD F691L; details: CellTiter-Glo, 72 hrs; read-out: Ba/F3 FLT3-ITD^F691L IC50
T3 construct: Ba/F3 FLT3-ITD^F691L IC50 (nM); other: CellTiter-Glo, 72 hrs
T3 sequence (P36888 1-993 F691L): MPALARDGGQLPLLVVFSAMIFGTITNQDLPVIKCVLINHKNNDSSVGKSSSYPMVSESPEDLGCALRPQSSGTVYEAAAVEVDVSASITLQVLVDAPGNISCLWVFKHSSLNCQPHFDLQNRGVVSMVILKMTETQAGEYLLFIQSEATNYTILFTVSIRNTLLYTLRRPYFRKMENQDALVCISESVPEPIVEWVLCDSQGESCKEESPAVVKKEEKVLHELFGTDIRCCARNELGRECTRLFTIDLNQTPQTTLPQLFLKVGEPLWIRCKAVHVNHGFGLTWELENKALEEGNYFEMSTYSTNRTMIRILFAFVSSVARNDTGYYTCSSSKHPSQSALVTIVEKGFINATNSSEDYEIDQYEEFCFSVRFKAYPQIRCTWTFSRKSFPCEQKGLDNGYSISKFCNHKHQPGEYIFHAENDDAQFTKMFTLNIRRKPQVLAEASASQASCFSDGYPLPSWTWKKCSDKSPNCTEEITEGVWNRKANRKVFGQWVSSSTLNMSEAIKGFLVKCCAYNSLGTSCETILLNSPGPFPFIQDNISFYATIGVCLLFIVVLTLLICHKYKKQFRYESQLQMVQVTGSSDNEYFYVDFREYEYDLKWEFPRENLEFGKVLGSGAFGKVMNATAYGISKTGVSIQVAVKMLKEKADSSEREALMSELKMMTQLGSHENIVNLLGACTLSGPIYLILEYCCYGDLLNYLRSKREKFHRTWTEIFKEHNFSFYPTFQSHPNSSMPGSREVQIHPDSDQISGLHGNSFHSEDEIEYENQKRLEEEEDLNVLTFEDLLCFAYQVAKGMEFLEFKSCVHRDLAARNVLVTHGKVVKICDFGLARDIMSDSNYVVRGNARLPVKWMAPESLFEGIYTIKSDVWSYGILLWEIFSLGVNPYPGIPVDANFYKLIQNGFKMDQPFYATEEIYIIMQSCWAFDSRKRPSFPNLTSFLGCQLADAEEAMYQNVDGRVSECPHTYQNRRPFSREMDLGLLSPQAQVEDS
Experimental: as §1, §2, §3, §4, §5, §6, §7

T1 sequence (P07949 whole entry, change not shown, the tested form may be a part): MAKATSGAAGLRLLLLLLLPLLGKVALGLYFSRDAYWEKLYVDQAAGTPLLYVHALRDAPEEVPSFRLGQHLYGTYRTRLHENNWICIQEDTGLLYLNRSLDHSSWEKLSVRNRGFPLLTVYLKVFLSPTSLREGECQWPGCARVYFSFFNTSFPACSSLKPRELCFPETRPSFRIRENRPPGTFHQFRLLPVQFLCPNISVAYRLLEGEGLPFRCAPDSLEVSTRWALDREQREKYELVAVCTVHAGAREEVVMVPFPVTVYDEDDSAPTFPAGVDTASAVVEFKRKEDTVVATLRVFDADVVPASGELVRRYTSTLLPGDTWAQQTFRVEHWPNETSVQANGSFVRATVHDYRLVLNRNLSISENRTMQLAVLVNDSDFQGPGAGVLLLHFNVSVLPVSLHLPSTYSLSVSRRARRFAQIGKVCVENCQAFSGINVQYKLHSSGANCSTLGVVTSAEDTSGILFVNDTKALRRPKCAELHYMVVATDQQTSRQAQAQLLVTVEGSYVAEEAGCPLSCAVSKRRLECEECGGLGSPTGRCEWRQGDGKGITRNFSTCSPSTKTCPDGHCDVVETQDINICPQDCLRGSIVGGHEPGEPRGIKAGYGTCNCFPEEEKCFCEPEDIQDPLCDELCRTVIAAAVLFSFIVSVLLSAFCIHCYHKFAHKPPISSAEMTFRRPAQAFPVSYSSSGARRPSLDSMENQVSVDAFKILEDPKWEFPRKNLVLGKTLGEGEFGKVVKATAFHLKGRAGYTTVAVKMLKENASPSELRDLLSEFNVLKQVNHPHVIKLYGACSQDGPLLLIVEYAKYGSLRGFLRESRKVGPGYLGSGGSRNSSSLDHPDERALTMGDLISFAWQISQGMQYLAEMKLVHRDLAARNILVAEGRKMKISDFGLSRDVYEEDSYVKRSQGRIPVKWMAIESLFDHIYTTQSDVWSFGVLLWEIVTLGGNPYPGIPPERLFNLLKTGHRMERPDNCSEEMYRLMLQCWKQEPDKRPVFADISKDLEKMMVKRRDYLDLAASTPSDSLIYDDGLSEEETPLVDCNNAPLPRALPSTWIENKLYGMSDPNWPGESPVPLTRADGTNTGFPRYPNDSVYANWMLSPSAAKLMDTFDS
T2 sequence (P07949 whole entry V804M, the tested form may be a part): as the sequence (P07949 whole entry, change not shown, the tested form may be a part) above, with V804M counted along it

Row | SMILES | GI50 (Ba/F3 KIF5B-RET cells [1]) [nM] | Ba/F3 KIF5B-RET Selectivity on parental generation (Ba/F3 KIF5B-RET cells [2]) | GI50 [3] [nM] | Ba/F3 KIF5B-RET^V804M Selectivity on parental generation [4] | GI50 [5] [nM]
1 | CC(C)n1nc(-c2ccc(CC(=O)Nc3cc(C(C)(C)C(F)(F)F)on3)cn2)c2c(N)ncnc21 [Compound T-7, 2-(6-(4-amino-1-isopropyl-1H-pyrazolo[3,4-d]pyrimidin-3-yl)pyridin-3-yl)-N-(5-(1,1,1-trifluoro-2-methylprop-2-yl)isoxazol-3-yl)acetamide] | 4.61 | 71.2 | 3.42 | 95.9 | 3.22
2 | CC(C)n1nc(-c2ccc(CC(=O)Nc3cc(C(C)(C)C(F)(F)F)no3)cn2)c2c(N)ncnc21 [Compound T-9, 2-(6-(4-amino-1-isopropyl-1H-pyrazolo[3,4-d]pyrimidin-3-yl)pyridin-3-yl)-N-(3-(1,1,1-trifluoro-2-methylprop-2-yl)isoxazol-5-yl)acetamide] | 10.9 | 377.8 | 29.9 | 137.7 | 28.1
3 | CC(C)n1nc(-c2ccc(NC(=O)Nc3cc(C(F)(F)F)ccc3F)cc2)c2c(N)ncnc21 [AD80, reference compound] | 2.19 | 370.7 | 10.8 | 75.2 | 11.8
4 | CC(C)n1nc(-c2ccc(NC(=O)Nc3cc(C(C)(C)C(F)(F)F)on3)cc2)c2c(N)ncnc21 [Compound T-2, 1-(4-(4-amino-1-isopropyl-1H-pyrazolo[3,4-d]pyrimidin-3-yl)phenyl)-3-(5-(1,1,1-trifluoro-2-methylprop-2-yl)isoxazol-3-yl)urea] | 0.16 | 2111.4 | 2.64 | 128.0 | 2.93
5 | CC(C)c1nc(-c2ccc(CC(=O)Nc3cc(C(C)(C)C(F)(F)F)on3)cc2)c2c(N)ncnn12 [Compound T-10, 2-(4-(4-amino-7-isopropylimidazo[5,1-f][1,2,4]triazin-5-yl)phenyl)-N-(5-(1,1,1-trifluoro-2-methylprop-2-yl)isoxazol-3-yl)acetamide] | 3.68 | 609.2 | 11.7 | 191.6 | 39.1
6 | CC(C)n1nc(-c2ccc(CC(=O)Nc3cc(C(C)(C)C(F)(F)F)on3)cc2)c2c(N)ncnc21 [Compound T-1, 2-(4-(4-amino-1-isopropyl-1H-pyrazolo[3,4-d]pyrimidin-3-yl)phenyl)-N-(5-(1,1,1-trifluoro-2-methylprop-2-yl)isoxazol-3-yl)acetamide] | 0.15 | 10802.6 | 5.65 | 286.8 | 7.7
7 | CC(C)c1cc(-c2ccc(CC(=O)Nc3cc(C(C)(C)C(F)(F)F)on3)cc2)c2c(N)ncnn12 [Compound T-5, 2-(4-(4-amino-7-isopropylpyrrolo[2,1-f][1,2,4]triazin-5-yl)phenyl)-N-(5-(1,1,1-trifluoro-2-methylprop-2-yl)isoxazol-3-yl)acetamide] | 2.88 | 1660.8 | 12.9 | 370.8 | 11.4
8 | CC(C)c1nc(-c2ccc(CC(=O)Nc3cc(C(C)(C)C(F)(F)F)on3)cc2)c2c(N)nccn12 [Compound T-4, 2-(4-(8-amino-3-isopropylimidazo[1,5-a]pyrazin-1-yl)phenyl)-N-(5-(1,1,1-trifluoro-2-methylprop-2-yl)isoxazol-3-yl)acetamide] | 1.56 | 449.4 | 9.53 | 73.6 | 16.6
9 | [2H]C([2H])([2H])C(n1cc(-c2ccc(CC(=O)Nc3cc(C(C)(C)C(F)(F)F)on3)cc2)c2c(N)ncnc21)C([2H])([2H])[2H] [Compound T-12, 2-(4-(4-amino-7-(propen-2-yl-1,1,1,3,3,d6)-7H-pyrrolo[2,3-d]pyrimidin-5-yl)phenyl)-N-(5-(1,1,1-trifluo-2-methylpropan-2-yl)isoxazol-3-yl)acetamide] | 2.24 | 478.6 | 4.55 | 235.6 | 3.7
10 | [2H]C([2H])([2H])C(n1nc(-c2ccc(CC(=O)Nc3cc(C(C)(C)C(F)(F)F)no3)cc2)c2c(N)ncnc21)C([2H])([2H])[2H] [Compound T-11, 2-(4-(4-amino-1-(propan-2-yl-1,1,1,3,3,3-d6)-1H-pyrazolo[3,4-d]pyrimidin-3-yl)phenyl)-N-(3-(1,1,1-trifluoro-2-methylpropan-2-yl)isoxazol-5-yl)acetamide] | 1.3 | 4236.2 | 3.63 | 1517.1 | 13.6
11 | CC(C)n1nc(-c2ccc(CC(=O)Nc3cc(C(C)(C)C(F)(F)F)no3)cc2)c2c(N)ncnc21 [Compound T-8, 2-(4-(4-amino-1-isopropyl-1H-pyrazolo[3,4-d]pyrimidin-3-yl)phenyl)-N-(3-(1,1,1-trifluoro-2-methylprop-2-yl)isoxazol-5-yl)acetamide] | 1.03 | 3569.9 | 3.6 | 1021.4 | 6.28
12 | CC(C)n1nc(-c2ccc(CC(=O)Nc3cc(C(C)(C)C(F)(F)F)on3)c(F)c2)c2c(N)ncnc21 [Compound T-6, 2-(4-(4-amino-1-isopropyl-1H-pyrazolo[3,4-d]pyrimidin-3-yl)-2-fluorophenyl)-N-(5-(1,1,1-trifluoro-2-methylprop-2-yl)isoxazol-3-yl)acetamide] | 0.31 | 6759.6 | 9.9 | 211.7 | 6.26
